{
  "source": "paper PMC11173618",
  "about": "“C2-Symmetrical Terphenyl Derivatives as Small Molecule Inhibitors of Programmed Cell Death 1/Programmed Death Ligand 1 Protein–Protein Interaction” (Molecules, 2024)",
  "key": {"[1]": {"biological_target": "T1, human PD-L1 protein (amino acids 18-134) (Homo sapiens, UniProt Q9NZQ7)", "T1 construct": "human PD-L1 protein (amino acids 18-134); made in house; host or cells: E. coli BL21 (pET-21b)", "T1 sequence (Q9NZQ7 18-134)": "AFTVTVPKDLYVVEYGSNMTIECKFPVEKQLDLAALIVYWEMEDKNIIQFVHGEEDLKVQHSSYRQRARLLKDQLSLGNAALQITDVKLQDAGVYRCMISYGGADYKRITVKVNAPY", "test": "1H NMR binding assay", "conditions": "ligand/protein 1:1, 0.2 mM PD-L1, 300 K", "quoted_text": "NMR spectra were recorded in 10 mM Tris, pH 8.0 20 mM NaCl containing 10% (v/v) of D2O added to the samples to provide the lock signal. Water suppression was carried out using the WATERGATE sequence. All the spectra were recorded at 300 K using a Bruker AVANCE 600 MHz spectrometer (Bruker, Billerica, MA, USA) with the cryoplatform.\nThe spectra were recorded at the ligand/protein ratio of 1:1 unless stated otherwise. The samples were prepared by adding small amounts of a 50 mM ligand stock solution in DMSO to the protein solution (0.20 mL) of PD-L1 fragment at a concentration of 0.2 mM. […] Spectra were visualized using TopSpin 4.0.2."}, "PD-1/PD-L1 complex": {"biological_target": "T2, PD-1/PD-L1 complex (Homo sapiens, UniProt Q9NZQ7)", "T2 construct": "purchased cis-bio", "T2 sequence (Q9NZQ7 19-238 limits assumed, one chain of several)": "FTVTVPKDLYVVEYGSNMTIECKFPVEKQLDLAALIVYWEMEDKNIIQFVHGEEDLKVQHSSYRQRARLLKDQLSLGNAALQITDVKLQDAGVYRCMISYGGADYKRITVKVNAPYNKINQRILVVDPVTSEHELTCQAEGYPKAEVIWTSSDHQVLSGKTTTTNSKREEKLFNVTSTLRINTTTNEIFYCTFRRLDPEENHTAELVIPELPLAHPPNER", "test": "HTRF assay of PD-1/PD-L1 complex inhibition (cis-bio kit)", "assay_type": "binding", "conditions": "1 h, scouting mode, 5 nM PD-L1, 50 nM PD-1, read-out: HTRF [%] (percentage of dissociated PD-1/PD-L1 complex)", "procedure": "All synthesized molecules were tested in the homogeneous time-resolved fluorescence (HTRF) assay to assess their activity as inhibitors of the PD-1/PD-L1 complex (Table 1, Table 2 and Table 3). This evaluation was conducted in scouting modes, employing concentrations of 5 μM and 0.5 μM. Based on the obtained measurements, the IC50 values were estimated for each tested compound.\nThe certified cis-bio assay kit was used to perform the HTRF assay. Following the standard protocol, the measurement was carried out at a 20 µL final volume with a 5 nM concentration of PD-L1 and a 50 nM concentration of PD-1 in the final formulation. […] The plate was incubated for 1 h and then read on an HTRF-certified Tecan Spark 20M microplate reader. Output data were subjected to background subtraction on negative control (without PD-1) and normalization in correlation to the positive control (without inhibitor) and were then averaged. The resulting data points were then fitted with Hill’s equation to generate IC50 using Mathematica 12. […]"}},
  "data": [
    {"smiles": "COc1cccc(CNCCNC(C)=O)c1OCc1cccc(-c2cccc(-c3cccc(COc4c(CNCCNC(C)=O)cccc4OC)c3)c2C)c1", "note": "[Compound 8b, N,N’-(((((((2′-methyl-[1,1′:3′,1′′-terphenyl]-3,3′′-diyl)bis(methylene))bis(oxy))bis(3-methoxy-2,1-phenylene))bis(methylene))bis(azanediyl))bis(ethane-2,1-diyl))diacetamide]", "values": [
      {"measurement": "Binding to PD-L1 by 1H NMR (broadening of PD-L1 proton signals)", "setting": "[1]", "value": "affinity of the test compounds for the PD-L1 protein is confirmed"},
      {"measurement": "inhibition at 0.5 µM", "setting": "PD-1/PD-L1 complex; inhibitor 0.5 µM", "value": "88.9 ± 3.8", "unit": "%"},
      {"measurement": "inhibition at 5 µM", "setting": "PD-1/PD-L1 complex; inhibitor 5 µM", "value": "73.6 ± 5.3", "unit": "%"}
    ]}
  ]
}
